As usually defined, the pIC50 is the IC50 on a negative log10 scale, so that one unit is a factor of ten. One may read the inhibition as the change of the read-out against control, counted positive when it falls. As a reminder, the Tmax is the time from dosing to the highest level. In general, Cmax refers to the peak of the concentration-time curve.

These results are taken from PMC8910697, “Development of VPC-70619, a Small-Molecule N-Myc Inhibitor as a Potential Therapy for Neuroendocrine Prostate Cancer” (International Journal of Molecular Sciences, 2022).

pIC50: −log10 of the molar value. “Also recorded” adds a separate entry of the source. Like-named read-outs stand apart in the source and are kept apart here.

The test system of series [1] is N-Myc-Max transcription activity (LNCaP-NMYC cells). The series is described as follows: Myc transcription assay (Cignal Myc reporter, luciferase) in LNCaP-NMYC cells. It is filed as cell-based. Particulars: for pIC50: Homo sapiens, LNCaP, Table 1, transcriptional assay in LNCaP cells overexpressing N-Myc, read-out: IC50; for transcription inhibition activity (in words): LNCaP-NMYC, screened at 10 µM and 5 µM. In a few lines:
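LNCaP-NMYC cells transfected with Cignal Myc luciferase reporter were treated 24 h with compounds at 5 µM or 10 µM. Read-out: inhibition of N-Myc-Max-driven reporter luminescence.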

Series [2] has the same test system. The series is described as above. Format: cell-based.
Series [3] has as its system HO15.19 cells. The series is described as follows: Cell viability counter-screen (CellTiter-Glo), Myc-negative HO15.19. The following applies: counter-screen. Format: cell-based. As for the experimental part: The 54 compounds were tested at 10 µM for their inhibition of the IMR32 human neuroblastoma cell line, in which the MYCN gene is amplified and actively expressed (Table 3). HO15.19 cell line (Myc-negative) was used in parallel as a compound specificity control.
Viability of N-Myc positive (IMR32and NCI-H660) and negative (HO15.19) cells were determined using the CellTiter-Glo Luminescent Cell Viability Assay (Promega cat. G7570) (Madison, WI, USA). Cells were seeded into a 96-well white plate with a clear bottom: 10,000 cells per well for the IMR32 cells cultured in EMEM supplemented with 10% FBS, 2000 HO15.19 cells per well in Eagle’s minimum essential medium (EMEM) supplemented with 10% FBS, and 2000 cells per well for the NCI-H660 neuroendocrine cells cultured in RPMI supplemented 5% FBS, 1% Insulin-Transferrin-Selenium (Thermo Fisher, 41400-045), 10nM b-estradiol (Sigma, E8875), 10nM hydrocortisone (Sigma H0888) and 1% matrigel. Following 24 h incubation, the cells were treated with serial dilutions of the derivatives along with the respective parental compound starting at 25 μM for 72 h. Cell Titer Glo was added to each well at a ratio of 1:1 and incubated on a shaker at RT for 2 min. Luminescence and IC50 was measured with the TECAN InfiniteM200 plate reader (Männedorf, Switzerland).

A short description of series [4]: Microsomal stability assay. Format: in vitro ADME, Mouse. Particulars: mouse liver microsomes, 1 µM compound. The protocol:
A microsomal stability assay was performed using the Corning Gentest NADPH Regenerating System (Corning, #451220/41200) (Corning, NY, USA). Mouse liver microsomes (MLM) (Xenotech, M1000) (Kansas City, KS, USA) and compounds were diluted to a final concentration of 0.15 mg/mL and 1 μM respectively. These were prepared into a 500 μL solution with 100 mM potassium phosphate buffer (pH = 7.4). Imipramine was used as a control. NADPH solutions A and B were mixed in a 5:1 ratio, and 24 μL of the NADPH was added to each of the MLM/compound samples at 30 s intervals. At time points 10, 20, and 45 min, 100 μL of reaction was added to the stopping solution. Samples were centrifuged at 18,000× g and incubated at 4 °C for 10 min. Samples were then loaded onto a LC-MS 96-well plate for analysis.
On the technique in general: Liver microsomes are a subcellular fraction often used to study metabolism.

For series [5], the target named is T1, N-Myc-Max heterodimer (Homo sapiens, UniProt P04198+P61244).
T1 construct: expressed in transfected cells; host or cells: LNCaP-NMYC cells (gift from David Rickman)
T1 sequence (P04198 whole entry): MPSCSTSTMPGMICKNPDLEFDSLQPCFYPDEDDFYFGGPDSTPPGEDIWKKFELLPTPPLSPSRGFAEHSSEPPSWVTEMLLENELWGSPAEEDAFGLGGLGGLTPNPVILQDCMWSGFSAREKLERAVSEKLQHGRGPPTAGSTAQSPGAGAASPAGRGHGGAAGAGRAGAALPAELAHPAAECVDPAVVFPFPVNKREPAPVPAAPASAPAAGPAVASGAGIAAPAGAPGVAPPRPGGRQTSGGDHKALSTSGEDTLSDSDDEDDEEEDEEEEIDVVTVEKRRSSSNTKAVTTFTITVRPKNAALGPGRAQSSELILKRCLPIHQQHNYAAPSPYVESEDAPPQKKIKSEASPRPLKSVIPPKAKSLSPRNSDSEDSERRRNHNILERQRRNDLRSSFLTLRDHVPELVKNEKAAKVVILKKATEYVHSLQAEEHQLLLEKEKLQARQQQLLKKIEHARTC
T1 sequence (P61244 whole entry): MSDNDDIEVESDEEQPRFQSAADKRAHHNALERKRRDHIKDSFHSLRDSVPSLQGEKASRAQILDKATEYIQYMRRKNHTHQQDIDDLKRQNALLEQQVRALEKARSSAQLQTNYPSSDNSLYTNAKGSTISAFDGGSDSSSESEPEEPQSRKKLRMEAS
Put plainly: Proximity ligation assay (PLA) in LNCaP-NMYC cells. The following applies: 10 µM, 72 h. It is filed as cell-based. The protocol:
(§1) To confirm that 70619 could disrupt the binding of N-Myc-Max DBD to DNA, we performed a bio-layer interferometry (BLI) assay where we immobilized biotinylated E-box sequence on streptavidin sensors, and we evaluated recombinant N-Myc-Max binding to the DNA in the presence of increasing concentrations of VPC-70619. […] We observed a similar number of interactions when comparing the ratio of signal per nuclei in the presence or absence of the compound.
LNCaP-NMYC cells were seeded on coverslips at a density of 10^5 cells per well of a 6-well plate. After incubation for 24 h the cells were treated with 10 μM of either 10074-G5 or 70619 for 72 h. The coverslips were fixed with methanol:acetone (3:1) and incubated with primary antibodies n-Myc Antibody (NMYC-1) (Novus Biologicals NB200-109) (Littleton, CO, USA) and MAX Antibody (C-17) (Santa Cruz sc-197) (Dallas, TX, USA) overnight at 4 °C. PLA was conducted using the Duolink In Situ Detection Reagents Red kit (Sigma DUO92008) according to the manufacturer’s protocol. The coverslips were then mounted on slides with VECTASHIELD mounting media with DAPI, and images were taken on ZEISS 780 confocal microscope at 40× magnification.

A short description of series [6]: Pharmacokinetics after IP and PO dosing. Format: in vivo, male Balb/c mice. Particulars: 10 mg/kg; for Tmax: 75:25 PG/PEG 400 formulation; for Cmax: 70551 in 75:25 PG/PEG 400, 70619 in 20:80 Kolliphor EL. As for the experimental part: In order to characterize VPC-70619 as a drug candidate against N-myc, its pharmacokinetic (PK) characteristics were evaluated in Balb/c mice following intraperitoneal (IP) and peroral (PO) administrations. As presented in Figure 5, we determined the PK properties of VPC-70619 and compared it to the parental molecule, VPC-70551. […] The clearance of 70551 for PO delivery was extremely slow, and we could not determine the T1/2 in the experimental conditions used for this assay. […] Therefore, VPC-70619 was deemed to have appropriate efficacy in vivo, and a better pharmacokinetic profile due to higher bioavailability for both oral and intraperitoneal administration.
Bienta Enamine Biology Services (Kyiv, Ukraine) conducted PK studies according to the Enamine PK study protocols and Institutional Animal Care and Use Guidelines. The PK studies were reviewed and approved by the Bienta Animal Care and Use Committee (BACUC) under the project identification codes PK-VPC-112618 (approved 17 December 2018) and PK-VPC-101119 (approved 21 October 2019), for VPC-70551 and […], respectively. Evaluation of 70619 and 70551 was conducted in male Balb/c mice through intraperitoneal (IP) and peroral (PO) administration. Measurements were taken at six time points: 5, 15, 60, 120, 240, and 360 min for IP; 15, 30, 60, 120, 240, and 480 min for PO. Four mice were included in each treatment group for each time point; one mouse each for IP and PO was included as a control. Initial target administration for both IP and PO was 10 mg/kg dose level, 2 mg/mL dose concentration, and 5 mL/kg dose volume. Concentration of the compounds was evaluated in the plasma samples using an LC-MS/MS system.

In series [7] the test system is N-Myc-Max binding to DNA E-box. Put plainly: Biolayer interferometry (BLI), N-Myc-Max binding to biotinylated E-box DNA. Format: biochemical. Particulars: BLI, 0, 50, 100, 200 µM.
Description: as §1
The bHLHLZ domain of N-Myc (amino acids 309–394) and Max (amino acids 12–93) protein sequences were cloned into pETDuet with an N-terminal 6×His. pETDuet-His-NMyc-Max was transformed and expressed in E. coli BL21 and induced with 0.5 mM isopropyl-β-D-thiogalactopyranoside (IPTG) at 16 °C overnight. The cultures were lysed by sonication and combined for purification by immobilized metal ion chromatography (IMAC) with nickel-nitrilotriacetic acid (Ni-NTA) resin. The bound proteins were eluted from the column with 20 mM Tris, pH = 8, 500 mM NaCl, 5% glycerol, 300 mM imidazole, 5 mM βMe, and 0.1 mM PMSF. Size exclusion chromatography with Superdex 75 was used to increase the purity of the N-Myc-Max protein sample. The purified protein complex was used in subsequent BLI and MST experiments.
Biotinylated-duplex DNA (Forward: 5′ Biotin-[…], Reverse: […]) was bound to the super-streptavidin (SSA) ForteBio Sensor in the assay buffer [20 mM Tris pH = 8, 150 mM NaCl, 5% glycerol, and 0.2 mM TCEP]. The protein solution was mixed with the serially diluted compound (70619) to a final concentration of 0.1 mg/mL of protein and 200 μM, 100 μM, and 50 μM for the compound. Sample containing N-Myc-Max protein alone was used as a control.
On the technique in general: In BLI a coated tip is dipped into the sample, and binding shifts an interference pattern.

Take `O=C(Nc1cccc(C(F)(F)F)c1)Nc1cccc(C(F)(F)F)c1` [compound 70511]: in series [1], the pIC50 is 5.70 and the “transcription inhibition activity (in words)” value was “promising inhibitory activity”. In addition, the inhibition at 25 µM in series [2] turned out to be 102%. In series [3], the “cytotoxicity in Myc-negative HO15.19 (in words)” value is “highly cytotoxic profile”.
With `O=[N+]([O-])c1ccc(Nc2ccccc2-c2ccccc2)c2nonc12` [10074-G5, reference compound], in series [4], the “microsomal half-life (T1/2)” value is 0.05 h. The “effect on N-Myc-Max heterodimer interactions (in words)” value in series [5] was “significant decrease in the number of interactions; also recorded: the number of interactions is reduced”.
`N#Cc1ccc(NNC(=O)c2ccc(C(F)(F)F)cc2)c(C(F)(F)F)c1` [compound 70551]: in series [1], the negative logarithm of the IC50 (pIC50) is 5.40. The inhibition at 25 µM in series [2] came out at 98%. In series [6] (male, Balb/c, mouse, plasma, ip, read-out: plasma half-life (T1/2) IP), the half-life stood at 5.53 h. The time to peak (Tmax) is 1 h in series [6] (male, Balb/c, mouse, plasma, IP, read-out: Tmax IP (converted)) and 8 h in series [6] (male, Balb/c, mouse, plasma, PO, read-out: Tmax PO (converted)). The Cmax in series [6] (male, Balb/c, mouse, plasma, IP, read-out: Cmax IP) stood at 6220 ng/mL; in series [6] (male, Balb/c, mouse, plasma, PO, read-out: Cmax PO), 2600 ng/mL. Also, the “adverse effects / signs of toxicity in PK animals” value in series [6] (single dose IP or PO) is reported as “No obvious adverse effects”. Also, the “microsomal half-life (T1/2)” value in series [4] (listed as VPC-70551) turned out to be 2.33 h. For the same molecule, the half-life at 1 μM in series [4] (mouse, pH 7.4, mouse liver microsomes, read-out: microsomal half-life (T1/2)) was found to be 2.35 h.
Take `O=C(NNc1ccc(C(F)(F)F)cc1[N+](=O)[O-])c1cnccn1` [compound 70127]: in series [1], the pIC50 is 6.00 and the “transcription inhibition activity (in words)” value was “strong Myc inhibitory activity”. The inhibition at 25 µM in series [2] is 106%. Also, the “disruption of DNA binding to (N-)Myc-Max (in words)” value in series [7] is reported as “weakly disrupts DNA binding”.
